Counter-ions that a name gives are not always drawn.
These compounds were tested on peripheral blood mononuclear cells (PBMCs) from healthy donors (assay: IFN production by R848-activated PBMCs, quantified with twINNE luciferase reporter cell line). Settings: Homo sapiens, PBMC; read-out: IC50 of anti-inflammatory activity (IFN production by activated PBMCs).
Assay type: cell-based, human
Method: The blood from healthy donors was obtained from “Etablissement Français du Sang” (convention #19/EFS/029), Paris, France.
In vitro experiments were performed using human peripheral blood mononuclear cells (PBMCs) isolated by density centrifugation from peripheral blood leukocyte separation medium, lymphoprep (Stemcell Technologies).
PBMCs were cultured in RPMI 1640 (Sigma-Aldrich, MO, USA) containing 10% heat-inactivated fetal bovine serum (Sigma-Aldrich, MO, USA) at 37° C./5% CO2.
The PBMCs used herein were prepared as described in part A “immune cells preparation”, above. PBMCs were seeded at 4.10^6/mL. Cells were pre-treated with different concentration of examples according to the invention. Cells were then stimulated with the TLR7/8 agonist resiquimod—R848 (Sigma-Aldrich, MO, USA) at 5 μg/mL.
To quantify the secretion of functional IFN, a biological assay based on a stable cell line where luciferase reporter gene is controlled by five Interferon-Stimulated Response Elements (twINNE cell line) was used. First, supernatants of R848-stimulated PBMCs (see part B above) were harvested after 24 h of stimulation and frozen at −20° C. for storage. Then, supernatants were dispensed in culture wells of a 96-well plate containing 35.103 twINNE cells per well in Dulbecco's Modified Eagle's Medium supplemented with 10% Foetal Bovine Serum, 100 U/mL Penicillin and 100 μg/mL Streptomycin (1% Pen-Strep) and 1 mM glutamine (Sigma-Aldrich, MO, USA) at 37° C./5% CO2. After 24 h of culture, luciferase activity was determined by adding 60 μL of Bright-Glo reagents (Promega, Wisconsin, USA) to culture wells and measuring bioluminescence with EnSpire Multimode Plate Reader (PerkinElmer, Massachusetts, USA). When stated, for IC50 calculation, dose-response curves fitted using the nonlin fit (variable slope) analysis in GraphPad Prism software (GraphPad Software, Califronia, USA).
IFN production was quantified (as specified in Materials and Methods, part C “quantification of interferon secretion”) using twINNE reporter cell line.

Compound	IC50 [µM]
CC1N=C(SCC2=CSC3=NC(Cc4ccccc4)CN23)Nc2ccccc21 (centres unmarked) [Example 113, 6-benzyl-3-(((4-methyl-1,4-dihydroquinazolin-2-yl)thio)methyl)-5,6-dihydroimidazo[2,1-b]thiazole dihydrochloride]	≤ 10
c1ccc(CC2CN=C(SCc3ccncc3)N2)cc1 (centres unmarked) [Example 56, 4-(((5-benzyl-4,5-dihydro-1H-imidazol-2-yl)thio)methyl)pyridine dihydrochloride]	10 to 32
COC1CCN(CCSC2=NCc3ccccc3N2)C1 (centres unmarked) [Example 127, 2-((2-(3-methoxypyrrolidin-1-yl)ethyl)thio)-1,4-dihydroquinazoline dihydrochloride]	≤ 10
Clc1ccc2c(c1)CN=C(SCC1=CSC3=Nc4ccccc4CN13)N2 [Example 39, 3-(((6-chloro-1,4-dihydroquinazolin-2-yl)thio)methyl)-5H-thiazolo[2,3-b]quinazoline dihydrochloride]	≤ 10
Clc1ccc2c(ccn2CCSC2=NCc3ccccc3N2)c1 [Example 74, 2-((2-(5-chloro-1H-indol-1-yl)ethyl)thio)-3,4-dihydroquinazoline hydrochloride]	> 32
Fc1cc(Cl)cc2c1N=C1SC=C(CSC3=NCc4ccccc4N3)N1C2 [Example 86, 7-chloro-3-(((1,4-dihydroquinazolin-2-yl)thio)methyl)-9-fluoro-5H-thiazolo[2,3-b]quinazoline dihydrochloride]	≤ 10
C1=C(CSC2=NCc3ccccc3N2)N2C(=N[C@H](c3ccccc3)[C@H]2c2ccccc2)S1 (relative stereo) [Example 16, trans-3-(((3,4-dihydroquinazolin-2-yl)thio)methyl)-5,6-diphenyl-5,6-dihydroimidazo[2,1-b]thiazole dihydrochloride]	≤ 10
c1ccc2c(c1)CN=C(SCc1ccncc1)NC2 [Example 189, 3-((pyridin-4-ylmethyl)thio)-2,5-dihydro-1H-benzo[e][1,3]diazepine dihydrochloride]	> 32
C1CCN(CCSC2=NCC3(CC3)N2)C1 [Example 187, 5-((2-(pyrrolidin-1-yl)ethyl)thio)-4,6-diazaspiro[2.4]hept-5-ene dihydrochloride]	≤ 10
Fc1cccc2c1CN=C(SCC1=CSC3=NCc4ccccc4CN13)N2 [Example 23, 3-(((5-fluoro-1,4-dihydroquinazolin-2-yl)thio)methyl)-5,10-dihydrobenzo[e]thiazolo[3,2-a][1,3]diazepine dihydrochloride]	≤ 10
CN1CCN=C1SCC1=CSC2=Nc3ccc(Cl)cc3CN12 [Example 45, 7-chloro-3-(((1-methyl-4,5-dihydro-1H-imidazol-2-yl)thio)methyl)-5H-thiazolo[2,3-b]quinazoline dihydrochloride]	≤ 10
Fc1ccc2c(c1)N=C1SC=C(CSC3=NCc4ccccc4N3)N1C2 [Example 82, 3-(((1,4-dihydroquinazolin-2-yl)thio)methyl)-8-fluoro-5H-thiazolo[2,3-b]quinazoline dihydrochloride]	≤ 10
c1ccc2c(c1)CN=C(SCCCCN1CCCC1)N2 [Example 137, 2-((4-(pyrrolidin-1-yl)butyl)thio)-1,4-dihydroquinazoline dihydrochloride]	10 to 32
Brc1ccc2c(c1)NC(SCC1=CSC3=NC(Cc4ccccc4)CN13)=NC2 (centres unmarked) [Example 119, 6-benzyl-3-(((7-bromo-1,4-dihydroquinazolin-2-yl)thio)methyl)-5,6-dihydroimidazo[2,1-b]thiazole dihydrochloride]	≤ 10
Fc1ccc2c(c1)CN1C(CSC3=NCc4ccccc4N3)=CSC1=N2 [Example 84, 3-(((1,4-dihydroquinazolin-2-yl)thio)methyl)-7-fluoro-5H-thiazolo[2,3-b]quinazoline dihydrochloride]	≤ 10
c1ccc2c(c1)CCN=C(SCCCCN1CCCC1)N2 [Example 159, 2-((4-(pyrrolidin-1-yl)butyl)thio)-4,5-dihydro-1H-benzo[d][1,3]diazepine dihydrochloride]	10 to 32
CC1(C)c2ccccc2N=C2SC=C(CSC3=NCc4ccccc4N3)N21 [Example 95, 3-(((1,4-dihydroquinazolin-2-yl)thio)methyl)-5,5-dimethyl-5H-thiazolo[2,3-b]quinazoline dihydrochloride]	≤ 10

Compound	IC50 [µM]
Clc1cccc2c1CN1C(CSC3=NCc4ccccc4N3)=CSC1=N2 [Example 81, 6-chloro-3-(((1,4-dihydroquinazolin-2-yl)thio)methyl)-5H-thiazolo[2,3-b]quinazoline dihydrochloride]	≤ 10
Clc1ccc2c(c1)CN=C(SCCCCn1ccnc1)N2 [Example 176, 2-((4-(1H-imidazol-1-yl)butyl)thio)-6-chloro-1,4-dihydroquinazoline dihydrochloride]	10 to 32
c1ccc(C2CCCN2CCSC2=NCc3ccccc3N2)cc1 (centres unmarked) [Example 128, 2-((2-(2-phenylpyrrolidin-1-yl)ethyl)thio)-1,4-dihydroquinazoline dihydrochloride]	≤ 10
c1ccc2c(c1)CN=C(SCCN1CCCCC1)N2 [Example 91, 2-((2-(piperidin-1-yl)ethyl)thio)-1,4-dihydroquinazoline dihydrochloride]	≤ 10
Clc1ccc(CC2CN3C(CSC4=NCc5ccccc5N4)=CSC3=N2)cc1 (centres unmarked) [Example 94, 6-(4-chlorobenzyl)-3-(((1,4-dihydroquinazolin-2-yl)thio)methyl)-5,6-dihydroimidazo[2,1-b]thiazole dihydrochloride]	≤ 10
Clc1ccc2c(c1)CN1C(CSC3=NCc4cccc(Br)c4N3)=CSC1=N2 [Example 92, 3-(((8-bromo-1,4-dihydroquinazolin-2-yl)thio)methyl)-7-chloro-5H-thiazolo[2,3-b]quinazoline dihydrochloride]	≤ 10
O=C(O)C1CCN(CCSC2=NCc3ccccc3N2)C1 (centres unmarked) [Example 144, 1-(2-((1,4-dihydroquinazolin-2-yl)thio)ethyl)pyrrolidine-3-carboxylic acid dihydrochloride]	> 32
CC1(C)N=C(SCC2=CSC3=Nc4ccc(Cl)cc4CN23)Nc2ccccc21 [Example 75, 7-chloro-3-(((4,4-dimethyl-1,4-dihydroquinazolin-2-yl)thio)methyl)-5H-thiazolo[2,3-b]quinazoline dihydrochloride]	> 32
CCCCN1C(SCC2=CSC3=NC(Cc4ccccc4)CN23)=NCc2ccccc21 (centres unmarked) [Example 99, 6-benzyl-3-(((1-butyl-1,4-dihydroquinazolin-2-yl)thio)methyl)-5,6-dihydroimidazo[2,1-b]thiazole dihydrochloride]	≤ 10
c1ccc2c(c1)CCN=C(SCCN1CCCC1)N2 [Example 182, 2-((2-(pyrrolidin-1-yl)ethyl)thio)-4,5-dihydro-1H-benzo[d][1,3]diazepine dihydrochloride]	10 to 32
c1ccc2c(c1)CCN=C(SCCCN1CCCC1)N2 [Example 190, 2-((3-(pyrrolidin-1-yl)propyl)thio)-4,5-dihydro-3H-benzo[d][1,3]diazepine dihydrochloride]	10 to 32
Clc1ccc2c(c1)CN1C(CSC3=NCC4(CC4)N3)=CSC1=N2 [Example 68, 3-(((4,6-diazaspiro[2.4]hept-5-en-5-yl)thio)methyl)-7-chloro-5H-thiazolo[2,3-b]quinazoline dihydrochloride]	≤ 10
Clc1ccc2c(c1)N=C1SC=C(CSC3=NCc4ccccc4N3)N1C2 [Example 42, 8-chloro-3-(((1,4-dihydroquinazolin-2-yl)thio)methyl)-5H-thiazolo[2,3-b]quinazoline dihydrochloride]	≤ 10
Brc1ccc2c(c1)CN=C(SCCCCN1CCCC1)N2 [Example 163, 6-bromo-2-((4-(pyrrolidin-1-yl)butyl)thio)-1,4-dihydroquinazoline dihydrochloride]	≤ 10
Clc1ccc2c(c1)CN1C(CSC3=NCc4cc(Br)ccc4N3)=CSC1=N2 [Example 67, 3-(((6-bromo-1,4-dihydroquinazolin-2-yl)thio)methyl)-7-chloro-5H-thiazolo[2,3-b]quinazoline dihydrochloride]	10 to 32
C[C@H](CSC1=NCc2cc(Cl)ccc2N1)N1CCCC1 [Example 167, (R)-6-chloro-2-((2-(pyrrolidin-1-yl)propyl)thio)-1,4-dihydroquinazoline dihydrochloride]	≤ 10
CN1CCCC1CCSC1=NCC(Cc2ccccc2)N1 (centres unmarked) [Example 57, 5-benzyl-2-((2-(1-methylpyrrolidin-2-yl)ethyl)thio)-4,5-dihydro-1H-imidazole dihydrochloride]	> 32

Same assay, conditions: PBMCs from 2 healthy donors, R848 5 μg/mL, IFN in supernatant by twINNE luciferase reporter; IT1t value is mean of at least 7 independent sets; read-out: IC50 of anti-inflammatory activity (IFN production by activated PBMCs)

Compound	IC50 [µM]
CC1(C)CN2C(CSC(=NC3CCCCC3)NC3CCCCC3)=CSC2=N1 [IT1t, reference compound]	32
